Data published in publication PMC10377034, “Syntheses of 25-Adamantyl-25-alkyl-2-methylidene-1α,25-dihydroxyvitamin D3 Derivatives with Structure–Function Studies of Antagonistic and Agonistic Active Vitamin D Analogs” (Biomolecules, 2023).
Where two headings read alike, the source gives them in different places.

Experiments:
[1] = biological target: T1, hVDR (Homo sapiens, UniProt P11473); test: VDR transactivation luciferase reporter assay in HEK293 cells (SPP×3-tk-LUC); format: cell-based
T1 construct: expressed in transfected cells; host or cells: HEK293
T1 sequence (P11473 1-427): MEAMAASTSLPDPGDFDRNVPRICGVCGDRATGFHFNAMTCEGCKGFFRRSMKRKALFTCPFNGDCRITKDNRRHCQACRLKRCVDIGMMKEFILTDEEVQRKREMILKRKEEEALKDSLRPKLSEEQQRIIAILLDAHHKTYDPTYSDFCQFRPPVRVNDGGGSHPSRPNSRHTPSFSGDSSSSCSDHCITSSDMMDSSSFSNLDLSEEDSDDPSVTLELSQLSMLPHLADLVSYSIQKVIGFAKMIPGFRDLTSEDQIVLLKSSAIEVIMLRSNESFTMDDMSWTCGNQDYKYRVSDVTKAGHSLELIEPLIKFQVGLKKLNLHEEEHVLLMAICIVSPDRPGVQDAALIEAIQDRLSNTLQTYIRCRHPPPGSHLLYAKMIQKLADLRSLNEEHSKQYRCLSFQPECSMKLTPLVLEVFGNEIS
Protocol: The transcriptional activity of the 25-alkylvitamin D analogs on the VDR was evaluated via a luciferase reporter assay in HEK293 human kidney cells transfected with an hVDR expression vector and a luciferase reporter with mouse osteopontin vitamin D response elements (VDREs, SPP×3-tk-LUC).
Transfections of 50 ng of TK-Spp × 3-LUC reporter plasmid, 10 ng of pCMX-β-galactosidase, and 15 ng of pCMX-VDR for each well of a 96-well plate were performed in HEK293 cells using the calcium phosphate coprecipitation method, as described previously. The mammalian two-hybrid assay for cofactor interaction with VDR used 50 ng of TK-MH100(UAS) × 3- LUC reporter plasmid, 10 ng of pCMX-β-galactosidase, 15 ng of pCMX-GAL4-RXRα, pCMX-GAL4-SRC1, or pCMX-GAL4-NCoR, and 15 ng of pCMX-VP16-VDR for each well of a 96-well plate. Luciferase and β-galactosidase activities were measured with a luminometer and a microplate reader (Molecular Devices, Sun Jose, CA, USA), respectively. Luciferase values were normalized to the internal β-galactosidase control.
HEK293 cells were co-transfected with TK-Spp × 3-LUC reporter plasmid and pCMX−VDR, and 8 h after transfection the cells were treated with several concentrations of each compound. After 24 h, the cells were harvested for assaying luciferase and β-galactosidase activity using a luminometer (Molecular Devices, Sunnyvale, CA, USA).

[2] = biological target: T2, recombinant hVDR-LBD (Homo sapiens, UniProt P11473); settings: relative to 1,25(OH)2D3
T2 sequence (P11473 140-427): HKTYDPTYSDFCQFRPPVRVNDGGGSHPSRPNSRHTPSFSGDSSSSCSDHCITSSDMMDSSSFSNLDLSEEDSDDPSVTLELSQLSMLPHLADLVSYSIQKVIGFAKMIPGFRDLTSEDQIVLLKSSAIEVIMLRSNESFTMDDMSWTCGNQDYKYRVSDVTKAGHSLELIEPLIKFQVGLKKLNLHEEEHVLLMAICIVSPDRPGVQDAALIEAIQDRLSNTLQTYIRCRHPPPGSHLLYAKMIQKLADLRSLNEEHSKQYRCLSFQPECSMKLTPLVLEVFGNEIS
Protocol: (§1) The pGEX-hVDR and pGEX were expressed for a GST-VDR fusion protein and a control GST protein, respectively, in Escherichia coli BL21 (Merck, Darmstadt, Germany). The bacteria were lysed by sonication in a sonication buffer (50 mM Tris-HCl, pH 8.0, 50 mM NaCl, 1 mM EDTA, and 1 mM DTT). The supernatant proteins (1 μg) were diluted in a binding buffer (25 mM Tris, pH 7.5, 100 mM KCl, 25 mM DTT, 4 mM CHAPS, pH 7.5) containing bovine serum albumin (100 μg/mL). A solution containing each test compound in 15 μL of EtOH was added to 570 μL of the GST protein solution in each tube. After being vortexed 2–3 times, the mixture was incubated for 30 min at room temperature. […] After being vortexed 2–3 times, the whole mixture was allowed to stand at 4 °C for 20 h, and 400 μL of dextran-coated charcoal solution (Sigma) was added to remove free ligands.
(§2) All values represent the means, and error bars are the standard deviations derived from triplicate assays.

[3] = biological target: T2, recombinant hVDR-LBD; test: biochemical
Protocol: as §1, §2

[4] = system: CYP24A1 expression in U937 cells; test: CYP24A1 expression (RT-qPCR) in U937 cells; settings: U937 blood cells, 100 nM, 24 h
Protocol: (§3) SW480 human colon carcinoma cells (American Type Culture Collection, Manassas, VA) and HaCaT immortalized keratinocyte cells (kindly provided by Dr. Tadashi Terui, Department of Dermatology, Nihon University School of Medicine) were cultured in DMEM containing 10% FBS, 100 U/mL penicillin, and 0.1 mg/mL streptomycin. […] All cells were cultured at 37 °C in a humidified atmosphere containing 5% CO2.
(§4) For gene expression analysis, 1 × 10^4 cells per well were plated in a 24-well plate. After 24 h, the cells were treated with an ethanol control or 100 nM of each test compound for 24 h. The total RNAs from the samples were extracted using the acid guanidine thiocyanate phenol/chloroform method [57], and cDNAs were synthesized using the ImProm-II reverse transcription system (Promega, Madison, WI) [43]. Real-time PCR was performed on the ABI PRISM 7000 sequence detection system (Thermo Fisher Scientific, Waltham, MA, USA) using Power SYBR Green PCR master mix (Thermo Fisher Scientific).
(§5) One-way ANOVA followed by Turkey’s multiple comparisons: ※ p < 0.05, ※※ p < 0.01, ※※※ p < 0.001 versus vehicle control.

[5] = system: CYP24A1 expression in MG63 cells; test: CYP24A1 expression (RT-qPCR) in MG63 cells; settings: MG63 bone cells, 100 nM, 24 h
Protocol: (§6) HEK293 human kidney cells (RIKEN Cell Bank, Tsukuba, Japan) were cultured in Dulbecco’s modified Eagle’s medium (DMEM) (Fujifilm Wako Pure Chemical Corporation, Tokyo, Japan) containing 5% fetal bovine serum (FBS), 100 U/mL penicillin, and 0.1 mg/mL streptomycin (Nacalai Tesque, Kyoto, Japan). SW480 human colon carcinoma cells (American Type Culture Collection, Manassas, VA) and HaCaT immortalized keratinocyte cells (kindly provided by Dr. Tadashi Terui, Department of Dermatology, Nihon University School of Medicine) were cultured in DMEM containing 10% FBS, 100 U/mL penicillin, and 0.1 mg/mL streptomycin. MG63 human osteosarcoma cells (RIKEN Cell Bank) and lung-derived H292 cells (American Type Culture Collection) were cultured in minimum essential medium containing 10% FBS, 100 U/mL penicillin, and 0.1 mg/mL streptomycin. […] All cells were cultured at 37 °C in a humidified atmosphere containing 5% CO2.
(§7) For gene expression analysis, 1 × 10^4 cells per well were plated in a 24-well plate. After 24 h, the cells were treated with an ethanol control or 100 nM of each test compound for 24 h. […] Real-time PCR was performed on the ABI PRISM 7000 sequence detection system (Thermo Fisher Scientific, Waltham, MA, USA) using Power SYBR Green PCR master mix (Thermo Fisher Scientific).

[6] = system: CYP24A1 expression in H292 cells; test: CYP24A1 expression (RT-qPCR) in H292 cells; settings: H292 lung cells, 100 nM, 24 h
Protocol: as §6, §7

[7] = system: CYP24A1 expression in SW480 cells; test: CYP24A1 expression (RT-qPCR) in SW480 cells; settings: SW480 intestine cells, 100 nM, 24 h
Protocol: as §6, §7

[8] = system: CYP24A1 expression in HaCaT cells; test: CYP24A1 expression (RT-qPCR) in HaCaT cells; settings: HaCaT skin cells, 100 nM, 24 h
Protocol: as §3, §4, §5

[9] = system: CYP24A1 expression in HEK293 cells; test: CYP24A1 expression (RT-qPCR) in HEK293 cells; settings: HEK293 kidney cells, 100 nM, 24 h
Protocol: as §6, §7

[10] = biological target: T3, VDR with SRC-1 (Homo sapiens, UniProt P11473); test: Mammalian two-hybrid assay, VDR binding to SRC-1
T3 sequence (P11473 1-427): T1 sequence (P11473 1-427)
T3 sequence (Q15788 595-771 partner limits assumed): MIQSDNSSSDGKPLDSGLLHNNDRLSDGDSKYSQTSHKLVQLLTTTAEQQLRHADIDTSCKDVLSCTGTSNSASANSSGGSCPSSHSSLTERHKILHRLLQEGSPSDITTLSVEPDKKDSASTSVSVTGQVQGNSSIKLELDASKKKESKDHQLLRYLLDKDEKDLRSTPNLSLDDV
Protocol: We used the expression plasmids pCMX-VDR, pCMX-VP16- VDR, pCMX-GAL4-RXRα, pCMX-GAL4-SRC-1, and pCMX-GAL4- N-CoR, as reported previously [43]. […] We used luciferase reporters: VDR-responsive Sppx3-tk-LUC and GAL4-responsive MH100(UAS) × 4-tk-LUC reporters [43].
Transfections of 50 ng of TK-Spp × 3-LUC reporter plasmid, 10 ng of pCMX-β-galactosidase, and 15 ng of pCMX-VDR for each well of a 96-well plate were performed in HEK293 cells using the calcium phosphate coprecipitation method, as described previously [43]. The mammalian two-hybrid assay for cofactor interaction with VDR used 50 ng of TK-MH100(UAS) × 3- LUC reporter plasmid, 10 ng of pCMX-β-galactosidase, 15 ng of pCMX-GAL4-RXRα, pCMX-GAL4-SRC1, or pCMX-GAL4-NCoR, and 15 ng of pCMX-VP16-VDR for each well of a 96-well plate. Luciferase and β-galactosidase activities were measured with a luminometer and a microplate reader (Molecular Devices, Sun Jose, CA, USA), respectively. Luciferase values were normalized to the internal β-galactosidase control.
(B) Effects on the interactions between the VDR and SRC-1. HEK293 cells were co-transfected with CMX-GAL4-SRC-1, CMX-VP16-VDR, and MH100 (UAS) × 4-tk-LUC and were treated with each compound over a range of concentrations. (C) Effects on interactions of the VDR with NCoR-1. HEK293 cells were co-transfected with CMX-GAL4-N-CoR in combination with CMX-VP16-VDR and MH100 (UAS) × 4-tk-LUC and were treated with each compound over a range of concentrations.

Transcriptional activity efficacy ([1]; 1,25(OH)2D3 = 100%): 95% | EC50 ([1]; read-out: Transcriptional activity EC50): 0.62 nM | Emax ([1]; this study, read-out: Transcriptional Activity % Efficacy of That of 1 (converted)): 95% | EC50 ([1]; this study, read-out: Transcriptional Activity EC50): 0.6 nM | VDR affinity, % of that of 1,25(OH)2D3 [2]: 23% | IC50 [3]: 1.6 nM | EC50 [10]: 2.4 nM
Structure (SMILES): C=C1[C@H](O)CC(=C/C=C2\CCC[C@]3(C)[C@@H]([C@H](C)CC#C[C@](O)(CCCC)C45CC6CC(CC(C6)C4)C5)CC[C@@H]23)C[C@H]1O [ADKM6, (25S)-25-(1-Adamantyl)-1α,25-dihydroxy-2-methylidene-26-propyl-23-yne-19,27-dinorvitamin D3]
CYP24A1 expression relative to natural hormone 1 [4]: 77.2% | CYP24A1 expression relative to natural hormone 1 [5]: 54.2% | CYP24A1 expression relative to natural hormone 1 [6]: 87.9% | CYP24A1 expression relative to natural hormone 1 [7]: 72.9% | CYP24A1 expression relative to natural hormone 1 [8]: 72.5% | CYP24A1 expression relative to natural hormone 1 [9]: 61.4%
